Like-named read-outs stand apart in the source and are kept apart here.

Assay [1] concerns the target cholesterol ester hydrolase (Homo sapiens, UniProt P19835). In words: biochemical.
In a further assay the test system is cholesterol absorption. In words: animal or person. Format: in vivo, normal rat.
[2] abbreviates: Rattus norvegicus, po, 6 h, read-out: % Decrease ^14 C Chol. Absorption at 6 hr in normal rat.

Chain of cholesterol ester hydrolase (P19835 21-753): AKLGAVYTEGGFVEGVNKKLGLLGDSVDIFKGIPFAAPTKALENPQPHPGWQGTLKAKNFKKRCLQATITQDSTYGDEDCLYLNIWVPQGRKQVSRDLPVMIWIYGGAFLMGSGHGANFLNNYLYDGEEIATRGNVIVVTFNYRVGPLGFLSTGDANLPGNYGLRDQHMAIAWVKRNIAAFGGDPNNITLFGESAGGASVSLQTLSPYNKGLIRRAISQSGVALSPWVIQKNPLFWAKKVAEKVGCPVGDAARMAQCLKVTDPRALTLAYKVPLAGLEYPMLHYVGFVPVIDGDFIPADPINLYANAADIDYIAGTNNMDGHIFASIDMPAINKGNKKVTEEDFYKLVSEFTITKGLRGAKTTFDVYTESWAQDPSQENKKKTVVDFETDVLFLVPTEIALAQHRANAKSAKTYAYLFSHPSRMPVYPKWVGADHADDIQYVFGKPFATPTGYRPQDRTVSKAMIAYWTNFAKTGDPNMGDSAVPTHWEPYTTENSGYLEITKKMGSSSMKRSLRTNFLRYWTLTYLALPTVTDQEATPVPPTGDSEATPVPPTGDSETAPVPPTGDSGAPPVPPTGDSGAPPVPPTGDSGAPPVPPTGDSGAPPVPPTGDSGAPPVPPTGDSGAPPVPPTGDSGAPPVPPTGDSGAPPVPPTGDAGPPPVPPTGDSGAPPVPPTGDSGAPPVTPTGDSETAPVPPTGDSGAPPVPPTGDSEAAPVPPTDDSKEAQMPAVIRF

With `CCCCCCCCNC(=O)ON=C(C1=CC(=O)C(C)(C)O1)c1ccccc1` [Example 1, 2,2-Dimethyl-5-[[[[(octylamino)carbonyl]oxy]imino]phenylmethyl]-3(2H)-furanone], the midpoint of inhibition in assay [1], the IC50, lay at 1900 nM. In addition, the inhibition in vivo at 100 mg/kg in the assay with cholesterol absorption (setting [2]) stood at 39%. Regarding `CCCCCCCCCCCCNC(=O)ON=C(C1=CC(=O)C(C)(C)O1)c1ccccc1` [Example 2, 2,2-Dimethyl-5-[[[[(dodecylamino)carbonyl]oxy]imino]phenylmethyl]-3(2H)-furanone], in assay [1], the IC50 (commonly the midpoint of a concentration-inhibition curve) worked out at 570 nM. Moreover, in the assay on cholesterol absorption (setting [2]), the inhibition in vivo at 100 mg/kg amounted to 76%. Take `CC1(C)CCC(NC(=O)ON=C(C2=CC(=O)C(C)(C)O2)c2ccccc2)CC1` [Example 3, 2,2-Dimethyl-5-[[[[[(4,4dimethylcyclohexyl)amino]carbonyl]oxy]imino]phenylmethyl]-3(2H)-furanone]: inhibition in assay [1] was half-maximal at 100 nM (IC50). Further, the inhibition in vivo at 100 mg/kg in the assay on cholesterol absorption (setting [2]) was determined as 44%. For the compound `CCCCCCCC/C=C\CCCCCCCCNC(=O)ON=C(C1=CC(=O)C(C)(C)O1)c1ccccc1` [Example 4, 2,2-Dimethyl-5-[[[[[(Z)-9-octadecenylamino]carbonyl]oxy]imino]phenylmethyl]-3(2H)-furanone], the IC50 in assay [1] (read-out: IC50 against CEH) was found to be 5400 nM. For the same compound, the inhibition in vivo at 100 mg/kg with cholesterol absorption (setting [2]) came out at 74%. In turn, `CCCCCCCC/C=C/CCCCCCCCCNC(=O)ON=C(C1=CC(=O)C(C)(C)O1)c1ccccc1` [Example 5, 2,2-Dimethyl-5-[[[[[(E)-10-nonadecenylamino]carbonyl]oxy]imino]phenylmethyl]-3(2H)-furanone] showed an IC50 in assay [1] of 25000 nM. The inhibition in vivo at 25 mg/kg in the assay with cholesterol absorption (setting [2]) is 39%. On the same counts, the results for `CCCCC/C=C/C/C=C/CCCCCCCCNC(=O)ON=C(C1=CC(=O)C(C)(C)O1)c1ccccc1` [Example 6, 2,2-Dimethyl-5-[[[[[(E,E)-9, 12-octadecadienylamino]carbonyl]oxy]imino]phenylmethyl]-3(2H)-furanone] are 2700 nM and 50%. On to `CCCCCCCCNC(=O)ON=C(C1=CC(=O)C(C)(C2CCCCC2)O1)c1ccccc1` (centres unmarked) [Example 7, 2-Cyclohexyl-2-methyl-5-[[[[(octylamino)carbonyl]oxy]imino]phenylmethyl]-3(2H)-furanone], for which 1900 nM corresponded to half-maximal inhibition in assay [1] (IC50). Moreover, the inhibition in vivo at 100 mg/kg in the assay on cholesterol absorption (setting [2]) turned out to be 47%. Consider `CCCCCCCCNC(=O)ON=C(C1=CC(=O)C(C)(c2ccccc2)O1)c1ccccc1` (centres unmarked) [Example 8], for which inhibition in assay [1] was half-maximal at 130 nM (IC50). In addition, in the assay with cholesterol absorption (setting [2]), the inhibition in vivo at 100 mg/kg stood at 46%. As for `CCCCCCCCNC(=O)ON=C(C1=CC(=O)C(C)(c2ccc(Cl)cc2)O1)c1ccccc1` (centres unmarked) [Example 9, 2-(4-Chlorophenyl)-2-methyl-5-[[[[(octylamino)carbonyl]oxy]imino]phenylmethyl]-3(2H)-furanone], inhibition in assay [1] was half-maximal at 2640 nM (IC50). Besides, the inhibition in vivo at 100 mg/kg with cholesterol absorption (setting [2]) worked out at 62%.

On to `CCCCCCCCNC(=O)ON=C(C1=CC(=O)C(C)(c2ccc(C(C)(C)C)cc2)O1)c1ccccc1` (centres unmarked) [Example 10, 2-[4-(1,1-Dimethylethyl)phenyl]-2-methyl-5-[[[[(octylamino)carbonyl]oxy]imino]phenylmethyl]-3(2H)-furanone], for which, in assay [1], the 50% inhibitory concentration (IC50) is 12700 nM. In addition, the inhibition in vivo at 100 mg/kg with cholesterol absorption (setting [2]) stood at 46%. On the same counts, the results for `CCCCCCCCNC(=O)ON=C(CCc1ccccc1)C1=CC(=O)C(C)(C)O1` [Example 11] are 1500 nM and 57%. The compound `CCCCCCCCCCCCNC(=O)ON=C(C1=C(Br)C(=O)C(C)(C)O1)c1ccccc1` [Example 12, 2,2-Dimethyl-4-bromo-5-[[[[(dodecylamino)carbonyl]oxy]imino]phenylmethyl]3(2H)-furanone] returned an IC50 in assay [1] of 2270 nM. In the assay with cholesterol absorption (setting [2]), the inhibition in vivo at 100 mg/kg was 69%. In assay [1], `CCCCCCCCCCCCNC(=O)ON=C(C1=CC(=O)C(C)(C)O1)c1ccc(Cl)cc1` [Example 13] had an IC50 of 10000 nM. For the same compound, the inhibition in vivo at 100 mg/kg in the assay with cholesterol absorption (setting [2]) was found to be 63%. On the same counts, the results for `O=C(NC1CCCCC1)ON=C(c1ccccc1)c1ccccn1` [Example 14, Phenyl(2-pyridinyl)methanone O-[(cyclohexylamino)carbonyl]oxime] are 1400 nM and 44%. Take `CCCCCCCCNC(=O)ON=C(c1ccccn1)c1ccccn1` [Example 16, Di(2-pyridinyl)methanone O-[(octylamino)carbonyl]oxime]: the IC50 in assay [1] worked out at 2770 nM. Besides, the inhibition in vivo at 50 mg/kg with cholesterol absorption (setting [2]) came out at 39%. `CCCCCCCCNC(=O)ON=C(c1ccc(F)cc1)c1ccccn1` [Example 17, (4-Fluorophenyl)(2-pyridinyl)methanone O-[(octylamino)carbonyl]oxime] had a concentration for half-maximal inhibition (IC50) in assay [1] of 440 nM. Moreover, in the assay on cholesterol absorption (setting [2]), the inhibition in vivo at 50 mg/kg was 57%. As to `CCCCCCCCNC(=O)ON=C(c1ccc(OC)cc1)c1ccccn1` [Example 18, (4-Methoxyphenyl)(2-pyridinyl)methanone O-[(octylamino)carbonyl]oxime], in assay [1], the IC50 turned out to be 2100 nM. The inhibition in vivo at 65 mg/kg with cholesterol absorption (setting [2]) is 45%. Consider `CCCCNC(=O)ON=C(c1ccc(N(C)C)cc1)c1ccccn1` [Example 20], for which the “% Decrease ^14 C Chol. Absorption at 6 hr in normal rat” value in the assay with cholesterol absorption (rat, in vivo) is on record as 51%.

The values above are taken from patent US5438056A (priority 1993, dated 1995).
